{"source": "patent US20230312685A1", "about": "“Bi-Peptide with Affinity to Extracellular Matrix Proteins or Cells and to Growth Factors for Tissue Healing and Regeneration” (Mayo Foundation for Medical Education and Research, priority 2019, published 2023)", "target": "T1, collagen type 1 of the scaffold (CMI) (Bos taurus, UniProt P02453+P02465)", "T1 construct": "the CMI is build out of collagen type 1 from bovine origin (FDA approved implant); from tissue; host or cells: bovine-derived collagen, in the form of the commercial collagen meniscal implant (CMI) scaffold", "T1 sequence (P02453 162-1217 limits assumed)": "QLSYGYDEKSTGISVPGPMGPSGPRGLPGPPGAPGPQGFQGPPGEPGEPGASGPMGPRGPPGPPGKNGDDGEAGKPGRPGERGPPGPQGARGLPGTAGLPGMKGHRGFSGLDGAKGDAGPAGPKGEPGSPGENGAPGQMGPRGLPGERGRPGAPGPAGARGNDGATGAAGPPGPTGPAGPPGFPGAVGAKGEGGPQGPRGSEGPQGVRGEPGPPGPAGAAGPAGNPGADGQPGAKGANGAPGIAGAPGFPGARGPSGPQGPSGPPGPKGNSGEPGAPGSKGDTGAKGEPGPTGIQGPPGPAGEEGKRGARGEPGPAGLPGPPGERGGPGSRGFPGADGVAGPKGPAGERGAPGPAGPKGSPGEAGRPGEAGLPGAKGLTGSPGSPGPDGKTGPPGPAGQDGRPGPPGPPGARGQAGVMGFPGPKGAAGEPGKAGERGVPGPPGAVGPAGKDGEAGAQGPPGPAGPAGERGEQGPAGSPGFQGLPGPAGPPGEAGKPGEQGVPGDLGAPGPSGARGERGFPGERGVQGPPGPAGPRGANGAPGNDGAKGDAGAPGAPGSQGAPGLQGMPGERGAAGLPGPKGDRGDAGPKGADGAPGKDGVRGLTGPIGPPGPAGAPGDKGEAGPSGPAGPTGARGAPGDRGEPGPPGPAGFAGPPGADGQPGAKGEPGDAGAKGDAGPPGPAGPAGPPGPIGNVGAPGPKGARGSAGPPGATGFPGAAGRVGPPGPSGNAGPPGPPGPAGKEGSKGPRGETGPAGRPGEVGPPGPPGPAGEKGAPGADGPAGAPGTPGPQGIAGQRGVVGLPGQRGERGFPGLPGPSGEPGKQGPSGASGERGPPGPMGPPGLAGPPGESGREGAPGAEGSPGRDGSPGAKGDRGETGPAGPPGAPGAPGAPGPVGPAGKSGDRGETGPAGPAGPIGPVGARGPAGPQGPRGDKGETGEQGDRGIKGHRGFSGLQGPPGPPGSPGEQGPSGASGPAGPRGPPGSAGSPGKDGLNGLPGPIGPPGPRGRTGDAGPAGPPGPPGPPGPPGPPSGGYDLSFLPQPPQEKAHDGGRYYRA", "T1 sequence (P02465 80-1117 limits assumed)": "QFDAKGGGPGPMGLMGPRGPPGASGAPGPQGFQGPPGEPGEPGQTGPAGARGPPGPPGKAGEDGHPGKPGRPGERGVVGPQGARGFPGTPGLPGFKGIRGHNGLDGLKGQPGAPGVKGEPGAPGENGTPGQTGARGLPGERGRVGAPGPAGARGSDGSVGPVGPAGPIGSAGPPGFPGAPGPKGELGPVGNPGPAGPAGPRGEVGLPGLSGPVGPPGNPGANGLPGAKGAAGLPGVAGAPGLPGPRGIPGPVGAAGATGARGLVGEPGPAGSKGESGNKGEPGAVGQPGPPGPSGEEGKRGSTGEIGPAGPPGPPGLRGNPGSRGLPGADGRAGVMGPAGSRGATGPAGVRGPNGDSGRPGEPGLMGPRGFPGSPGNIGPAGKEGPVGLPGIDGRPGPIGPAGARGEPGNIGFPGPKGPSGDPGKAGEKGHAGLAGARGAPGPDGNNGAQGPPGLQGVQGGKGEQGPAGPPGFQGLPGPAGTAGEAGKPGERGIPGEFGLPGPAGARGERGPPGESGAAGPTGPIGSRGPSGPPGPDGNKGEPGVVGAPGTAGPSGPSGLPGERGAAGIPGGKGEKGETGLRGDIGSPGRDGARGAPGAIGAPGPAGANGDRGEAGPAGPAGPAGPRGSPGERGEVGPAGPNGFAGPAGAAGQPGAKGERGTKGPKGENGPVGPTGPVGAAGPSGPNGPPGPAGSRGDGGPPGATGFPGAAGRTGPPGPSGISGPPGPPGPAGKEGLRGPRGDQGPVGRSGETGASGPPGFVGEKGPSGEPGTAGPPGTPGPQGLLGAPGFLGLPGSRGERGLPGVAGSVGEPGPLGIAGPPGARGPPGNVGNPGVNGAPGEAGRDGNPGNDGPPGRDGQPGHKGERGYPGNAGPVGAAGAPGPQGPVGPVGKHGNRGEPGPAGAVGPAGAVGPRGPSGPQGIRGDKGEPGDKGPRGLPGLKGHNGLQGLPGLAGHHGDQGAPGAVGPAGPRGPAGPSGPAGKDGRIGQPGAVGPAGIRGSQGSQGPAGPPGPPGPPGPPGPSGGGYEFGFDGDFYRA", "assay": "Immunofluorescence (IF) assay for PDGF-BB on the collagen meniscal implant (CMI)", "format": "binding, bovine", "protocol": "Pictures are merged z-stack files from confocal microscopy.\n(1) Complete assay; (2) Blank assay; (3) Assay without peptide; (4) Assay without growth factor (PDGF); (5) Assay without primary antibody. Note: PDGF appears to bind well to collagen type 1 of the scaffold even without pre-incubation of the bi-peptide structure. Therefore the heparin-binding domain part of the peptide for PDGF can't be evaluated according to this assay.\nFIG. 10 is an image of a Tile confocal scan of the CMI in the IF assay for PDGF-BB. The complete surface of the CMI was able to bind with recombinant PDGF.", "data": [{"substance": "PDGF", "values": [{"measurement": "binding of PDGF to collagen type 1 of the scaffold", "setting": "IF assay on CMI, without pre-incubation of the bi-peptide structure", "result": "bind well"}, {"measurement": "binding of recombinant PDGF to the CMI surface", "setting": "tile confocal scan of the CMI, complete surface", "result": "able to bind"}]}]}
